Test results published in patent US4740233A, “Substituted 1,2,4-triazolo[1,5-a]-pyrimidine-2-sulfonamides and compositions and methods of controlling undesired vegetation and suppressing the nitrification of ammonium nitrogen in soil” (The Dow Chemical Company, priority 1986, dated 1988).

Key:
annual morning glory [1] = test: Postemergent control of plant species; type: in vivo, Ipomoea spp.; conditions: Ipomoea, post-emergence, 336 h, read-out: percent postemergent control
How it was run: (§1)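 Spray emulsion: acetone stock at twice final concentration plus equal volume water with 0.1% wetting agent, applied to separated greenhouse beds at 2-4 leaf stage. Assessed at ~two weeks; score reflects growth reduction compared with untreated plants.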

yellow nutsedge [2] = test: Control of aquatic plant species (paddy water); type: in vivo, Cyperus esculentus; conditions: Cyperus, 216 h, nine days, read-out: Percent control; for pest or weed control at 1000 g/ha: 1.0 Kg/Ha
Method: (§2) In testing for such utility, the plant species to be tested were transplanted into 16 oz. containers into about 2 inches of soil when they were in the 1-2 inch stage and then flooded to a depth of about 1 inch. An acetone concentrate of the chemical to be tested was then injected into the paddy water, the volume injected being varied as desired to provide the desired concentration. Percent control was evaluated nine days after application.

sugar beet [3] = test: Postemergent control of plant species; type: in vivo, Beta saccharifera; conditions: Beta vulgaris, post-emergence, 336 h, read-out: percent postemergent control
How it was run: as §1

barnyardgrass [4] = test: Control of aquatic plant species (paddy water); type: in vivo, Echinochloa crusgalli; conditions: Echinochloa crus-galli, 216 h, nine days, read-out: Percent control; for pest or weed control at 1000 g/ha: 1.0 Kg/Ha
Method: as §2

[5] = test system: nitrification of ammonium nitrogen; test: Suppression of nitrification of ammonium nitrogen in soil; conditions: 27° C.
How it was run: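 Value is % NH4-N remaining after a two-week, 27° C incubation of treated soil held at 1/3 bar tension moisture. Nitrate was measured with an ion-selective electrode after extraction with ammonium sulfate solution and 10 min shaking.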

barnyardgrass [6] = test: Postemergent control of plant species; type: in vivo, Echinochloa crusgalli; conditions: Echinochloa crus-galli, post-emergence, 336 h, read-out: percent postemergent control
How it was run: as §1

yellow nutsedge [7] = test: Postemergent control of plant species; type: in vivo, Cyperus esculentus; conditions: Cyperus, post-emergence, 336 h, read-out: percent postemergent control
How it was run: as §1

sorghum [8] = test: Postemergent control of plant species; type: in vivo, Sorghum vulgare; conditions: Sorghum, post-emergence, 336 h, read-out: percent postemergent control
How it was run: as §1

crabgrass = test: Postemergent control of plant species; type: in vivo, Digitaria spp.; conditions: Digitaria sanguinalis, post-emergence, 336 h, read-out: percent postemergent control
How it was run: as §1

johnson grass [9] = test: Postemergent control of plant species; type: in vivo, Sorghum halepense; conditions: Sorghum halepense, post-emergence, 336 h, read-out: percent postemergent control
How it was run: as §1

rice [10] = test: Control of aquatic plant species (paddy water); type: in vivo, Oryza sativa; conditions: Oryza sativa, 216 h, nine days, read-out: Percent control; for pest or weed control at 1000 g/ha: 1.0 Kg/Ha
Method: as §2

jimsonweed [11] = test: Postemergent control of plant species; type: in vivo, Datura stramonium; conditions: Datura stramonium, post-emergence, 336 h, read-out: percent postemergent control
How it was run: as §1

soybean [12] = test: Postemergent control of plant species; type: in vivo, Glycine max.; conditions: Glycine max, post-emergence, 336 h, read-out: percent postemergent control
How it was run: as §1

corn [13] = test: Postemergent control of plant species; type: in vivo, Zea mays; conditions: Zea mays, post-emergence, 336 h, read-out: percent postemergent control
How it was run: as §1

yellow foxtail [14] = test: Postemergent control of plant species; type: in vivo, Setaria lutescens; conditions: Setaria, post-emergence, 336 h, read-out: percent postemergent control
How it was run: as §1

cocklebur = test: Postemergent control of plant species; type: in vivo, Xanthium spp.; conditions: Xanthium strumarium, post-emergence, 336 h, read-out: percent postemergent control
How it was run: as §1

pigweed = test: Postemergent control of plant species; type: in vivo, Amaranthus spp.; conditions: Amaranthus retroflexus, post-emergence, 336 h, read-out: percent postemergent control
How it was run: as §1

wild oats [15] = test: Postemergent control of plant species; type: in vivo, Avena fatua; conditions: Avena fatua, post-emergence, 336 h, read-out: percent postemergent control
How it was run: as §1

rape [16] = test: Postemergent control of plant species; type: in vivo, Brassica napus; conditions: Brassica napus, post-emergence, 336 h, read-out: percent postemergent control
How it was run: as §1

rice [17] = test: Postemergent control of plant species; type: in vivo, Oryza sativa; conditions: Oryza sativa, post-emergence, 336 h, read-out: percent postemergent control
How it was run: as §1

sprangletop = test: Control of aquatic plant species (paddy water); type: in vivo, Leptochloa filiformis; conditions: Leptochloa filiformis, 216 h, nine days, read-out: Percent control; for pest or weed control at 1000 g/ha: 1.0 Kg/Ha
Method: as §2

wheat [18] = test: Postemergent control of plant species; type: in vivo, Triticum aestivum; conditions: Triticum aestivum, post-emergence, 336 h, read-out: percent postemergent control
How it was run: as §1

velvetleaf [19] = test: Postemergent control of plant species; type: in vivo, Abutilon theophrasti; conditions: Abutilon theophrasti, post-emergence, 336 h, read-out: percent postemergent control
How it was run: as §1

jimsonweed [20] = test: Preemergent control of plant species; type: in vivo, Datura stramonium; conditions: Datura stramonium, pre-emergence, 336 h; 0.25 lb/acre; read-out: percent preemergent control
How it was run: (§3)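 Test compositions were applied evenly to the surface of freshly seeded soil beds and kept under greenhouse conditions for two weeks. Percent control reflects growth reduction compared with water-treated beds of the same species.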

cotton [21] = test: Postemergent control of plant species; type: in vivo, Gossypium spp.; conditions: Gossypium hirsutum, post-emergence, 336 h, read-out: percent postemergent control
How it was run: as §1

wild oats [22] = test: Preemergent control of plant species; type: in vivo; conditions: Avena fatua, pre-emergence, 336 h; 0.25 lb/acre; read-out: percent preemergent control
How it was run: as §3

barnyardgrass [23] = test: Preemergent control of plant species; type: in vivo, Echinochloa crusgalli; conditions: Echinochloa crus-galli, pre-emergence, 336 h; 0.25 lb/acre; read-out: percent preemergent control
How it was run: as §3

yellow nutsedge [24] = test: Preemergent control of plant species; type: in vivo, Cyperus esculentus; conditions: Cyperus, pre-emergence, 336 h; 0.25 lb/acre; read-out: percent preemergent control
How it was run: as §3

velvetleaf [25] = test: Preemergent control of plant species; type: in vivo, Abutilon theophrasti; conditions: Abutilon theophrasti, pre-emergence, 336 h; 0.25 lb/acre; read-out: percent preemergent control
How it was run: as §3

corn [26] = test: Preemergent control of plant species; type: in vivo, Zea mays; conditions: Zea mays, pre-emergence, 336 h; 0.25 lb/acre; read-out: percent preemergent control
How it was run: as §3

sugar beet [27] = test: Preemergent control of plant species; type: in vivo, Beta saccharifera; conditions: Beta vulgaris, pre-emergence, 336 h; 0.25 lb/acre; read-out: percent preemergent control
How it was run: as §3

yellow foxtail [28] = test: Preemergent control of plant species; type: in vivo, Setaria lutescens; conditions: Setaria, pre-emergence, 336 h; 0.25 lb/acre; read-out: percent preemergent control
How it was run: as §3

soybean [29] = test: Preemergent control of plant species; type: in vivo, Glycine max.; conditions: Glycine max, pre-emergence, 336 h; 0.25 lb/acre; read-out: percent preemergent control
How it was run: as §3

annual morning glory [30] = test: Preemergent control of plant species; type: in vivo, Ipomoea spp.; conditions: Ipomoea, pre-emergence, 336 h; 0.25 lb/acre; read-out: percent preemergent control
How it was run: as §3

cotton [31] = test: Preemergent control of plant species; type: in vivo, Gossypium spp.; conditions: Gossypium hirsutum, pre-emergence, 336 h; 0.25 lb/acre; read-out: percent preemergent control
How it was run: as §3

johnson grass [32] = test: Preemergent control of plant species; type: in vivo, Sorghum halepense; conditions: Sorghum halepense, pre-emergence, 336 h; 0.25 lb/acre; read-out: percent preemergent control
How it was run: as §3

rape [33] = test: Preemergent control of plant species; type: in vivo, Brassica napus; conditions: Brassica napus, pre-emergence, 336 h; 0.25 lb/acre; read-out: percent preemergent control
How it was run: as §3

rice [34] = test: Preemergent control of plant species; type: in vivo, Oryza sativa; conditions: Oryza sativa, pre-emergence, 336 h; 0.25 lb/acre; read-out: percent preemergent control
How it was run: as §3

sorghum [35] = test: Preemergent control of plant species; type: in vivo, Sorghum vulgare; conditions: Sorghum, pre-emergence, 336 h; 0.25 lb/acre; read-out: percent preemergent control
How it was run: as §3

wheat [36] = test: Preemergent control of plant species; type: in vivo, Triticum aestivum; conditions: Triticum aestivum, pre-emergence, 336 h; 0.25 lb/acre; read-out: percent preemergent control
How it was run: as §3

| Compound | pest or weed control at 500 ppm (annual morning glory [1]) [%] | pest or weed control at 1000 g/ha (yellow nutsedge [2]) [%] | plant injury at 500 ppm (sugar beet [3]) [%] | pest or weed control at 1000 g/ha (barnyardgrass [4]) [%] | pest or weed control at 500 ppm (barnyardgrass [6]) [%] | pest or weed control at 500 ppm (yellow nutsedge [7]) [%] | plant injury at 500 ppm (sorghum [8]) [%] | pest or weed control at 500 ppm (crabgrass) [%] | pest or weed control at 500 ppm (johnson grass [9]) [%] | pest or weed control at 1000 g/ha (rice [10]) [%] | pest or weed control at 500 ppm (jimsonweed [11]) [%] | plant injury at 500 ppm (soybean [12]) [%] | plant injury at 500 ppm (corn [13]) [%] | pest or weed control at 500 ppm (yellow foxtail [14]) [%] | pest or weed control at 500 ppm (cocklebur) [%] | pest or weed control at 500 ppm (wild oats [15]) [%] | plant injury at 500 ppm (rape [16]) [%] | plant injury at 500 ppm (rice [17]) [%] | plant injury at 500 ppm (wheat [18]) [%] | pest or weed control at 500 ppm (velvetleaf [19]) [%] | also measured |
| --- | --- | --- | --- | --- | --- | --- | --- | --- | --- | --- | --- | --- | --- | --- | --- | --- | --- | --- | --- | --- | --- |
| Cc1cc(C)n2nc(S(=O)(=O)Nc3ccccc3Cl)nc2n1 [Compound 7, 5,7-dimethyl-N-(2-chlorophenyl)-1,2,4-triazolo[1,5-a]pyrimidine-2-sulfonamide] | 90 | 90 | 100 | 99 | 35 | 65 | 65 | 0 | 50 | 97 | 20 | 55 | 0 | 25 | 100 | 0 | 90 | 15 | 0 | 65 | % NH4-N Remaining After 2 Weeks Incubation ([5]; 0.06 ppm): 17%; % NH4-N Remaining After 2 Weeks Incubation ([5]; 0.125 ppm): 30%; % NH4-N Remaining After 2 Weeks Incubation ([5]; 0.25 ppm): 62%; % NH4-N Remaining After 2 Weeks Incubation ([5]; 0.5 ppm): 73%; % NH4-N Remaining After 2 Weeks Incubation ([5]; 1 ppm): 80%; pest or weed control at 500 ppm (pigweed): 60%; pest or weed control at 1000 g/ha (sprangletop): 93% |
| Cc1ccn2nc(S(=O)(=O)Nc3c(C)nn(C)c3C(F)(F)F)nc2n1 [Compound 246] | 50 | – | 100 | – | 50 | 80 | 95 | 75 | 75 | – | 80 | 85 | 0 | 90 | 90 | 0 | 70 | 70 | 0 | 70 | pest or weed control at 280.212 g/ha (jimsonweed [20]): 0%; plant injury at 500 ppm (cotton [21]): 80%; pest or weed control at 280.212 g/ha (wild oats [22]): 40%; pest or weed control at 280.212 g/ha (barnyardgrass [23]): 0%; pest or weed control at 280.212 g/ha (yellow nutsedge [24]): 20%; pest or weed control at 280.212 g/ha (velvetleaf [25]): 30%; plant injury at 280.212 g/ha (corn [26]): 20%; plant injury at 280.212 g/ha (sugar beet [27]): 90%; pest or weed control at 500 ppm (pigweed): 100%; pest or weed control at 280.212 g/ha (yellow foxtail [28]): 20%; plant injury at 280.212 g/ha (soybean [29]): 90%; pest or weed control at 280.212 g/ha (annual morning glory [30]): 0%; plant injury at 280.212 g/ha (cotton [31]): 80%; pest or weed control at 280.212 g/ha (johnson grass [32]): 20%; plant injury at 280.212 g/ha (rape [33]): 80%; plant injury at 280.212 g/ha (rice [34]): 20%; plant injury at 280.212 g/ha (sorghum [35]): 95%; plant injury at 280.212 g/ha (wheat [36]): 10% |
| Cc1ccnc2nc(S(=O)(=O)Nc3c(Cl)cccc3Cl)nn12 [Compound 180] | 90 | 97 | 100 | 97 | 10 | 90 | 50 | 90 | 20 | 80 | 100 | 100 | 0 | 75 | 100 | 0 | 100 | 10 | 0 | 100 | plant injury at 500 ppm (cotton [21]): 100%; pest or weed control at 250 g/ha (yellow nutsedge [2]; 0.25 Kg/Ha): 90%; pest or weed control at 250 g/ha (barnyardgrass [4]; 0.25 Kg/Ha): 90%; pest or weed control at 250 g/ha (rice [10]; 0.25 Kg/Ha): 0%; pest or weed control at 250 g/ha (sprangletop; 0.25 Kg/Ha): 0%; pest or weed control at 1000 g/ha (sprangletop): 97% |
